The text below walks through data of patent publication US20200253907A1, “Compositions and Methods for Treating Neurodegenerative Diseases” (The Regents of the University of California, priority 2017, published 2020).

The subject of data set [1] is differentiated PC-12 cells. Briefly: Amyloid-beta induced cell death in differentiated PC-12 cells. The format is cell-based. Particulars: 200 μM, pretreated 2 hours before Aβ42 or Aβ25-35; 24-hour incubation; control cells 48.5±1.8%; FIG. 16. The text has this: Overnight after seeding, cells were differentiated with NGF in 0.5% FCS, RPMI 1640 medium for 7 days.
The next data set concerns GMC101 C. elegans strain. Briefly: Paralysis assay in GMC101 C. elegans model of Alzheimer's disease. As to conditions: for paralysis caused by Aβ: single agent, FIG. 4 (alanine 1-8 mM), FIG. 5 (KIC 2-32 mM); for GMC101 paralysis: 4 mM, FIG. 3. The format is in vivo. The method, then: To investigate the effects of small molecules in a C. elegans model of Alzheimer's disease, the GMC101 C. elegans strain, developed by Gawain McColl at the University of Melbourne, Australia, was used. The GMC101 C. elegans strain expresses the full length human amyloid beta 1-42 protein in the body wall muscle cells, leading to a fully penetrant age-progressive paralysis. These worms were first age-synchronized by performing an egg prep (mixed <100 gravid worms in 70 μl M9 buffer, 25 μl bleach and 5 μl 10 N NaOH). […] All worms were transferred to fresh plates on Day 5.

Entries after “also recorded” stand apart in the source; their conditions may differ.

As to `CCCCCCCCOC(=O)C(=O)CCC(=O)O` [octyl α-KG, octyl α-ketoglutarate], in data set [1], the “cells remaining alive (viable)” value was “about 73±2.2%”.

Take `CC(C)CC(=O)C(=O)O` [KIC, α-ketoisocaproate]: the “beneficial effect in GMC101 (paralysis)” value in the data set with GMC101 C. elegans strain (16 mM KIC alone) is given as “not observed to exhibit beneficial effects; also recorded: does not exert a beneficial effect”. Also, the “paralysis caused by Aβ” value in the data set with GMC101 C. elegans strain is “reduces paralysis caused by Aβ”.

In the case of `CC[C@H](O)C(=O)O` [2-HB, 2-hydroxybutyrate], the GMC101 paralysis result with GMC101 C. elegans strain is on record as “can also delay GMC101 paralysis”.

In the case of `C[C@H](N)C(=O)O` [alanine, L-alanine], the “health span of GMC101” value is recorded as “can extend health span of GMC101” in the data set with GMC101 C. elegans strain (2 mM alanine alone, FIG. 9); “can extend health span of GMC101” in the data set with GMC101 C. elegans strain (4 mM alanine alone, FIG. 10); “can extend health span of GMC101” in the data set on GMC101 C. elegans strain (8 mM alanine alone, FIG. 11). Further, in the data set with GMC101 C. elegans strain, the “paralysis caused by Aβ” value is “can reduce paralysis caused by Aβ”.

Consider `CC(O)CC(=O)O` (stereo not shown) [3-HB, 3-hydroxybutyrate, reference compound], for which the GMC101 paralysis result in the data set on GMC101 C. elegans strain is on record as “delay in paralysis is not observed”.

As to `CCC(=O)C(=O)O` [α-KB, α-ketobutyrate], the Aβ caused paralysis entry in the data set with GMC101 C. elegans strain (about 2 mM, FIG. 2) is given as “can delay Aβ caused paralysis”.

`O=C(O)CCC(=O)C(=O)O` [α-KG, α-ketoglutarate]: the “health span of GMC101 C. elegans strain” value in the data set with GMC101 C. elegans strain (2 mM, FIG. 1) is recorded as “can extend the health span”. Further, the “delay of paralysis compared to vehicle treatment” value in the data set on GMC101 C. elegans strain (8 mM on NGM plates, worms shifted to 25° C.) was determined as 22%.

As for `CC(C)C(=O)C(=O)O` [KIV, α-ketoisovalerate], the GMC101 health span result in the data set on GMC101 C. elegans strain (8 mM, FIG. 6) is reported as “can extend GMC101 health span”.
